Data reported in PMC8169650, “Identification of Small Molecule Inhibitors of a Mir155 Transcriptional Reporter in Th17 Cells” (Scientific Reports, 2021).
Read-outs that look alike come from different tables or passages of the source.

Experiments:
[1] = LC-MS analysis of compound stability
Description: We analyzed by liquid chromatography mass spectrometry (LC–MS) the 10 mM compound stock solutions in DMSO, stored at − 20 °C, that were used in the screening (older batch) versus the “fresh” solutions. […] Sample 2 is another sample that had been kept outside at room temperature for 30 days before evaluation.

Mir155 reporter = Mir155 reporter Beta-Glo HTS assay (β-gal activity); assay type: cell-based, mouse; conditions: Mus musculus, 48 h, read-out: EC50, inhibition of Mir155 reporter expression
Description: To develop an assay for the HTS screen, CD4^+ T cells were purified from spleen and lymph nodes of the Mir155 reporter mice. The purified CD4^+ T cells were cultured under Th17 cell-polarizing conditions in twelve well plates following which differentiated Th17 cells were transferred and expanded in six well plates followed by a resting period of 2 days in T cell media (schema depicted in Fig. 1a). We first optimized the cell number to maximize the assay window. To this end, differentiated Th17 cells were plated at different cell densities in the wells of polystyrene 1536-well plates under Th17 polarizing conditions. T cell activation was accomplished using two protocols. In the first protocol, magnetic beads coupled to anti-CD3 and anti-CD28 antibodies (CD3/CD28 microbeads) were added to mediate T cell activation as induction of MiR155 expression requires engagement of the TCR CD3 complex (signal 1) plus the co-stimulatory molecule CD28 (signal 2). The cells along with the beads were incubated at 37 °C, 5% CO2 for 48 h and, subsequently, high-throughput quantitation of β-gal activity was performed after 30 min of incubation using the Beta-Glo Assay system (Fig. 1b).
The NPC collection was screened at seven concentrations (top concentration 46 µM; 1:5 dilution thereafter) and drug response curves for the compounds were generated using our qHTS curve class classification algorithm as described above.
CD4^+ cells were purified from spleens and lymph nodes of Mir155 reporter mice as described above. Briefly, single cell suspensions were prepared by mechanical disruption followed by lysis of red blood cells with 0.83% ammonium chloride. CD4^+ T cells were either isolated by FACS sorting (BD FACS Aria) or were positively selected using magnetic CD4 microbeads (Miltenyi Biotec)[43]. 1 million CD4^+ cells/well were cultured in anti-CD3/CD28 (1 µg/ml each) coated 12 well plates under Th17 polarization conditions following which differentiated Th17 cells were transferred and expanded in six well plates followed by a resting period of 2 days in T cell media. A cocktail containing 10 ng/ml each of IL-6, IL-1 β, IL-21 and TGF-β (0.5 ng/ml) and IFNγ, IL-4, IL-12 neutralizing antibodies (10 μg/ml) was used for the Th17 polarizing conditions. For the HTS assay, 2000 differentiated Th17 cells/well in Th17 polarizing media were added to Greiner-one high base solid bottom white tissue culture treated 1536 well plates (catalog # 789173-F) using a small cassette and a Multidrop Combi dispenser (Thermo Fisher Scientific Inc.,Waltham, MA). Compounds were added using a Kalypsys pintool (Columns 5–48) and magnetic beads coupled to anti-CD3 and anti-CD28 (CD3/CD28 microbeads) were added to mediate T cell activation. CD3/CD28 microbeads were not added to first 2 columns and those wells served as basal control. DMSO was added to columns 3 and 4 and served as 100% signal. The plates were incubated for 48 h at 37 °C, 5% CO2, 95% humidity covered with low evaporation stainless steel lids from Kalypsys. After 48 h of incubation, 5 µl of Beta-Glo reagent (Beta Glo Assay System, Promega) was added using a Bioraptor Flying Reagent Dispenser (Aurora Discovery-BD) and the plates were incubated at room temperature for 30 min. Luminescence signal was captured using a 10 s exposure with a ViewLux (Perkin Elmer) containing a luminescent filter. Beta Glo reagent consists of Beta Glo substrate and buffer that are combined to form the Beta Glo reagent (Beta Glo Assay System, Promega).

[2] = test system: IL-17 production in Th17 cells; experiment: Intracellular IL-17 flow cytometric cytokine assay under Th17 polarization; assay type: cell-based, mouse; conditions: for IL-17+ cells, gated on live CD4+CD44high cells: DMSO 32% (panel b), 36.8% (panel c); for inhibition at 20 µM: Mus musculus, 96 h, read-out: down-regulation (inhibition) of IL-17 production compared to control
Description: (§1) It has been previously shown that IL-17 production is defective in miR-155 deficient cells. […] To test the hit compounds for IL-17 downregulation, we purified naive CD4^+ T cells from C57BL/6 mice and cultured them under Th17 polarization condition. Small molecules at multiple concentrations (20 µM, 10 µM and 5 µM) were added 18 h post-plating of CD4^+ T cells on anti-CD3/CD28 coated plates and again on day 2 of culture (schema depicted in Fig. 3a).
(§2) Spleens and lymph nodes were harvested from mice and single cell suspensions were prepared by mechanical disruption followed by lysis of red blood cells with 0.83% ammonium chloride. CD4^+ T cells were either isolated by FACS sorting (BD FACS Aria) or were positively selected using magnetic CD4 microbeads (Miltenyi Biotec). For intracellular IL-17 quantitation by flow cytometry, 0.25 million cells/ well were plated in anti-CD3/CD28 (1 µg/ml) coated 48 well plates. A cocktail containing 10 ng/ml each of IL-6, IL-1 β, IL-21 and TGF-β (0.5 ng/ml) and IFNγ, IL-4, IL-12 neutralizing antibodies (10 μg/ml) was used for the Th17 polarizing conditions. All recombinant cytokines were purchased from R&D Systems and crosslinking antibodies were purified from hybridomas (Harlan). Cells were treated with small molecules at indicated concentrations at 18 h and 48 h of cell plating. On day 4 of the culture, cells were stimulated with 20 ng/ml of phorbol 12-myristate 13-acetate (PMA) and ionomycin (1 μg/ml) for 4 h in the presence of brefeldin A. Following stimulation, cells were stained with fixable viability dye (eBioscience) and surface stained for CD44 and CD4, permeabilized using cytofix/cytoperm (BD biosciences) and subsequently, stained for intracellular IL-17. Foxp3/Transcription Factor Staining kit (eBioscience) kit was used for intranuclear staining of RORγt. Samples were acquired on BD Fortessa and analyzed using Flowjo (Tree star Inc).

[3] = test system: Th17 cells from Mir155 reporter mice; experiment: HTS viability assay (CellTiter-Glo); assay type: cell-based, mouse; conditions: primary Th17 cells
Description: Next, the HTS assay was further validated for robustness by screening LOPAC1280, a collection of 1280 pharmacologically active compounds. The LOPAC collection contains biologically annotated compounds with diverse mechanism(s) including but not limited to pharma-developed tools, receptor ligands and approved drugs. Seven concentrations of each compound were assayed, ranging from 3 nM to 46 µM as five-fold dilutions. One assay plate was treated with DMSO to determine the assay robustness in the absence of compounds (Fig. 1d). A total of eight assay plates including DMSO plate were tested in the LOPAC pilot screen and the median assay parameter per plate was 21-fold signal-to-background (S/B) ratio and the median Z’-factor was 0.72 (Fig. 1e), thus further validating the robustness of this assay in a 1536-well format. Data was analyzed using a curve class classification algorithm which classifies dose responses in four categories (Class 1, 2, 3 and 4) based on the quality of curve fit to the data (r^2), the magnitude of the response (efficacy), and the number of asymptotes to the calculated curve. Compounds with a curve class of either − 1.1, − 1.2, − 2.1, − 2.2 in the primary assay were classified as pharmacologically active compounds. […] The LOPAC collection was additionally tested for toxic effects using the CellTiter-Glo Luminescent Cell Viability Assay (Promega) which measures ATP levels as a proxy for number of live cells to exclude toxic compounds. […] An ideal compound should antagonize Mir155 reporter with minimal effect on cell viability.
For the HTS viability assay, the T cells were purified, polarized, plated and treated with compounds as described above for HTS β-gal assay except Columns 1 and 2 had no cells and served as basal control. After 48 h of incubation, 3 μL of CellTiter-Glo reagent (Promega) was added using a Bioraptor Flying Reagent Dispenser (Aurora Discovery-BD)[50]. The plates were incubated for 15 min at room temperature and the luminescence signal was captured using a ViewLux (Perkin Elmer) containing a luminescent filter. […]

CD4+ T cells = experiment: Viability dye and CD44 activation staining in the IL-17 flow cytometric assay; assay type: cell-based; conditions: Fig. S2a
Description: as §1, §2

[4] = Th17 cells from Mir155 reporter mice, β-gal signal

| stability by LC–MS [1] | EC50 (Mir155 reporter; [4]) | Structure (SMILES) | IL-17+ cells, gated on live CD4+CD44high cells ([2]; 20 µM) | effect on IL-17 production ([2]; C57BL/6 CD4+ T cells, Th17 polarization) | cytotoxicity / cell viability [3] | EC50 (Mir155 reporter) | inhibition at 20 µM ([2]; CD4+ T) | IL-17 / RORγt plot, percent cells, gated on live CD4+CD44high ([2]; Fig. S2b, DMSO 32.4% / 21.2%) | inhibition at 20 µM ([2]; 20 µM, day 4, C57BL/6 CD4+ T cells) | live cells (fixable viability dye, Live-dead) (CD4+ T cells; DMSO 77.4% / 80.6%) | CD4+ CD44+ cells (CD4+ T cells; DMSO 97.2% / 98.2%) |
| --- | --- | --- | --- | --- | --- | --- | --- | --- | --- | --- | --- |
| stable and pure | 5500 nM | c1ccc2[nH]c(-c3cscn3)nc2c1 [thiabendazole, reference compound] | 31% | did not affect IL-17 production | not because of toxicity of the compounds | – | – | – | – | – | – |
| stable and pure | 140 nM | O=C(Nc1ncc([N+](=O)[O-])s1)c1cccs1 [tenonitrozole, reference compound] | 10.4% | – | not because of toxicity of the compounds | – | – | 9.3% | 68% | 70.6% | 96.4% |

| Structure (SMILES) | stability by LC–MS [1] | EC50 (Mir155 reporter; [4]) | IL-17+ cells, gated on live CD4+CD44high cells ([2]; 20 µM) | effect on IL-17 production ([2]; C57BL/6 CD4+ T cells, Th17 polarization) | cytotoxicity / cell viability [3] | EC50 (Mir155 reporter) | inhibition at 20 µM ([2]; CD4+ T) | IL-17 / RORγt plot, percent cells, gated on live CD4+CD44high ([2]; Fig. S2b, DMSO 32.4% / 21.2%) | inhibition at 20 µM ([2]; 20 µM, day 4, C57BL/6 CD4+ T cells) | live cells (fixable viability dye, Live-dead) (CD4+ T cells; DMSO 77.4% / 80.6%) | CD4+ CD44+ cells (CD4+ T cells; DMSO 97.2% / 98.2%) |
| --- | --- | --- | --- | --- | --- | --- | --- | --- | --- | --- | --- |
| CCCSc1ccc2nc(NC(=O)OC)[nH]c2c1 [albendazole, reference compound] | stable and pure | – | 14.2% | – | not because of toxicity of the compounds | 2500 nM | 55% | – | – | – | – |
